Measurements published in article PMC12282101, “Heat shock protein 90 chaperone activity is required for hepatitis A virus replication” (Journal of Virology, 2025).
Entries after “also recorded” stand apart in the source; their conditions may differ. Counter-ions that a name gives are not always drawn. Like-named read-outs stand apart in the source and are kept apart here.

Legend:
HAV IRES = format: cell-based, Hepatitis A virus; conditions: 100 nM
18f-NLuc reporter virus [1] = assay: microbe, parasite or virus in culture; format: cell-based, Hepatitis A virus; conditions: 293T cells; read-out: IC50, HAV replication by NLuc
Procedure: Cells were lysed in 1× passive lysis buffer (Promega, #E1941) for 15 min at room temperature, then lysates were transferred to opaque white 96-well plates (Corning, #3912). NLuc activity was quantified using the NLuc GLOW Assay kit (Nanolight Technology, #325), and FLuc assays were carried out with the Luciferase Assay System (Promega, E1500). Luminescence was measured using a Biotek Synergy II multi-mode plate reader (BioTek Instruments).

18f-NLuc reporter virus [2] = format: cell-based, Hepatitis A virus
[3] = tested on: mouse-passaged HM175 strain of HAV; parameters: species or system Ifnar1^-/- mice; conditions: in vivo, ip
HAV [4] = assay: microbe, parasite or virus in culture; format: cell-based, Hepatitis A virus; conditions: PH5CH8 cells; read-out: IC50, HAV replication by RT-qPCR
HM175/18f virus [5] = conditions: for IC50: read-out: IC50, HAV replication by RT-qPCR
Huh-7.5.1 cells [6] = conditions: Huh-7.5 or Huh-7.5.1 cells, RT-qPCR experiments
293T cells = assay: Cytotoxicity in 293T cells
Huh-7.5.1 cells [7] = conditions: 10 µM
18f-NLuc reporter virus [8] = assay: microbe, parasite or virus in culture; format: cell-based, Hepatitis A virus; conditions: for activity at 10 µM: Hepatovirus A, Huh-7.5.1, 72 h, read-out: Normalized HAV production
HM175/18f virus [9] = assay: microbe, parasite or virus in culture; conditions: Hepatovirus A, Huh-7.5.1, read-out: IC50, HAV replication by RT-qPCR
in vitro = conditions: human
Huh-7.5.1 cells [10] = assay: Cell viability in the chemical screen (Cell TiterGlo); conditions: 10 µM compound, 72 h
18f-NLuc reporter virus [11] = conditions: for IC50: read-out: IC50, HAV replication by NLuc
HAV [12] = conditions: cited from earlier work

| Compound | Viability Percent DMSO (Huh-7.5.1 cells [7]) [Percent DMSO] | activity at 10 µM (18f-NLuc reporter virus [8]) [%] | Viability Percent DMSO (Huh-7.5.1 cells [10]) [Percent DMSO] | further results |
| --- | --- | --- | --- | --- |
| C=CCNC1=C2C[C@@H](C)C[C@H](OC)[C@H](O)[C@@H](C)/C=C(\C)[C@H](OC(N)=O)[C@@H](OC)/C=C\C=C(/C)C(=O)NC(=CC1=O)C2=O [17-AAG] | – | – | – | GFP synthesis from circRNA HAV IRES reporter (HAV IRES): neither geldanamycin nor 17-AAG inhibited; also recorded: had no effect; IC50 (18f-NLuc reporter virus [1]): 11.7 nM; NLuc expression at 48 hours post-infection (18f-NLuc reporter virus [2]): neither case did either HSP90 inhibitor reduce NLuc expression; Area occupied by IBA-positive cells in liver section [3]: significantly reduced; Increase in serum alanine aminotransferase (ALT) activity versus vehicle [3]: significantly lower; Inflammatory cell infiltrates in liver sections (H&E) [3]: notably fewer and smaller in size; Number of IBA1-positive cells in liver section [3]: significantly reduced; Viral RNA in feces versus vehicle [3]: significantly reduced; Viral RNA in liver versus vehicle [3]: significantly reduced; Viral RNA in serum versus vehicle [3]: significantly reduced; IC50 (HAV [4]): 3.2 nM; Fold by which IC50 is below CC50 (HM175/18f virus [5]; hepatocyte-derived cells, RT-qPCR): approximately 30 fold; IC50 (HM175/18f virus [5]): 14.2 nM; CC50 (Huh-7.5.1 cells [6]): 418 nM; CC50 (293T cells): > 1000 nM |
| NC12CC3CC(CC(C3)C1)C2 [Amantadine hydrochloride] | 111 | 87 | – | – |
| CC(C)CN(C[C@@H](O)[C@H](Cc1ccccc1)NC(=O)O[C@H]1CO[C@H]2OCC[C@H]21)S(=O)(=O)c1ccc(N)cc1 [Darunavir] | 106 | 99 | – | – |
| C=C1CC[C@@H]2[C@](C)(COC(=O)CCC(=O)[O-])[C@H](OC(=O)CCC(=O)O)CC[C@@]2(C)[C@@H]1/C=C/C1=CCOC1=O.[K+] [Dehydroandrographolide Succinate Potasium Salt] | 102 | – | – | Normalized HAV production (18f-NLuc reporter virus [8]): 1.19 |
| COC(=O)N[C@H](C(=O)NNC[C@H](O)[C@H](Cc1ccccc1)NC(=O)[C@@H](NC(=O)OC)C(C)(C)C)C(C)(C)C [Des(benzylpyridyl) Atazanavi] | 159 | – | – | Normalized HAV production (18f-NLuc reporter virus [8]): 0.67 |
| Nc1nc(=O)n([C@@H]2CS[C@H](CO)O2)cc1F [Emtricitabine] | 123 | 120 | – | – |
| COc1cccc(-c2cc(F)ccc2[C@H]2Cc3nc(N)nc(C)c3C(=O)N2)n1 [HSP990] | – | – | – | IC50 (HM175/18f virus [5]): 2.2 nM; Blocking of HAV replication (in words) (HM175/18f virus [5]; targeted screen of heat shock protein inhibitors, RT-qPCR): highly active; CC50 (Huh-7.5.1 cells [6]): 56.9 nM |
| CC(C)(C)Oc1cccc2nc(N)nc(N)c12 [HZ-1157] | 16 | – | – | Normalized HAV production (18f-NLuc reporter virus [8]): 2.12 |
| Cc1c(-c2cnccn2)ssc1=S [Oltipraz] | 90 | 113 | – | – |
| NC(=O)c1ncn([C@@H]2O[C@H](CO)[C@@H](O)[C@H]2O)n1 [Ribavirin] | 117 | 112 | – | – |
| CC(C)c1cc(-c2n[nH]c(=O)n2-c2ccc3c(ccn3C)c2)c(O)cc1O [STA9090] | – | – | – | Blocking of HAV replication (in words) (HM175/18f virus [5]): highly active; IC50 (HM175/18f virus [9]): 12.1 nM; CC50 (in vitro): 147 nM |
| NCCCNCCCCNCCCN [Spermine] | 112 | 96 | – | – |
| CCc1cc(C(N)=O)ccc1-n1nc(C(C)C)c2c(-n3cnc(-c4cnn(C)c4)c3)ccnc21 [TAS116] | – | – | – | Blocking of HAV replication (in words) (HM175/18f virus [5]): highly active; IC50 (HM175/18f virus [9]): 84.3 nM; CC50 (in vitro): 835 nM |
| CC(C)OC(=O)[C@H](C)N[P@](=O)(CO[C@H](C)Cn1cnc2c(N)ncnc21)Oc1ccccc1 [Tenofovir alafenamide] | 75 | 141 | – | – |
| O=C(Nc1ncc([N+](=O)[O-])s1)c1ccccc1O [Tizoxanide] | – | 113 | 72 | – |
| O=c1[nH]c(=O)n([C@H]2C[C@H](O)[C@@H](CO)O2)cc1C(F)(F)F [Trifluridine] | – | 107 | 96 | – |
| S=C(NCCc1ccccn1)Nc1ccc(Br)cn1 [Trovirdine] | 165 | 71 | – | – |
| CC(C)OC(=O)C1=CN(C(=O)c2ccc(F)c(F)c2)CC(C)(C)c2c1[nH]c1ccccc21 [Turofexorate Isopropyl] | – | 100 | 161 | – |

| Compound | Viability Percent DMSO (Huh-7.5.1 cells [7]) [Percent DMSO] | activity at 10 µM (18f-NLuc reporter virus [8]) [%] | Viability Percent DMSO (Huh-7.5.1 cells [10]) [Percent DMSO] | further results |
| --- | --- | --- | --- | --- |
| N#Cc1ccc(COC[C@H]2O[C@@H](n3c(NCc4ccc(Cl)c(Cl)c4)nc4c(N)ncnc43)[C@H](O)[C@@H]2O)cc1 [VER155008] | – | – | – | CC50 (Huh-7.5 cells): > 10000 nM; Anti-HAV activity relative to CC50 (in words) (18f-NLuc reporter virus [11]): only at concentrations close to their CC50; IC50 (18f-NLuc reporter virus [11]): 3320 nM |
| Clc1ccc(C(Cn2ccnc2)OCc2ccsc2Cl)c(Cl)c1 (stereo not drawn) [Vagistat] | 93 | 109 | – | – |
| CC(C)[C@H](N)C(=O)OCCOCn1cnc2c(=O)[nH]c(N)nc21 [Valacyclovir hydrochloride] | – | 87 | 117 | – |
| CC(C)[C@H](N)C(=O)OCC(CO)OCn1cnc2c(=O)nc(N)[nH]c21 (stereo partly drawn) [Valganciclovir hydrochloride] | – | 90 | 110 | – |
| COC[C@H]1C[C@@H](c2ncc(-c3ccc4c(c3)COc3cc5c(ccc6nc([C@@H]7CC[C@H](C)N7C(=O)[C@@H](NC(=O)OC)C(C)C)[nH]c65)cc3-4)[nH]2)N(C(=O)[C@H](NC(=O)OC)c2ccccc2)C1 [Velpatasvir] | – | 52 | 121 | – |
| O=C(/C=C\n1cnc(-c2cc(C(F)(F)F)cc(C(F)(F)F)c2)n1)NNc1ccccn1 [Verdinexor] | – | 22 | 174 | – |
| Nc1ncnc2c1ncn2[C@@H]1O[C@H](CO)[C@@H](O)[C@@H]1O [Vidarabine] | – | 104 | 119 | – |
| CC(=O)Oc1c(C)c(C)c2c(c1C)CCC(C)(CCC[C@H](C)CCC[C@H](C)CCCC(C)C)O2 (stereo partly drawn) [Vitamin E Acetate] | – | 133 | 82 | – |
| C[C@@H](c1ncncc1F)[C@](O)(Cn1cncn1)c1ccc(F)cc1F [Voriconazole] | – | 133 | 123 | – |
| COc1cc(O)c(CC=C(C)C)c(O)c1C(=O)/C=C/c1ccc(O)cc1 [Xanthohumol] | – | 92 | 102 | – |
| Cc1ccc(NC(=O)C(=O)NC2CC(C)(C)NC(C)(C)C2)cc1 [YYA-021] | 121 | – | – | Normalized HAV production (18f-NLuc reporter virus [8]): 1.03 |
| Nc1ccn([C@H]2CC[C@@H](CO)O2)c(=O)n1 [Zalcitabine] | – | 98 | 99 | – |
| Cc1cn([C@H]2C[C@H](N=[N+]=[N-])[C@@H](CO)O2)c(=O)[nH]c1=O [Zidovudine] | – | 131 | 92 | – |
| COc1ccccc1[C@H](Cn1c(=O)n(C(C)(C)C(=O)O)c(=O)c2c(C)c(-c3ncco3)sc21)OC1CCOCC1 [firsocostat] | – | – | – | HAV replication in cell culture (in words) (HAV [12]): potently inhibits |
| Darunavir Ethanolate | – | – | 111 | Normalized HAV production (18f-NLuc reporter virus [8]): 1.54 |
| JG98 | – | – | – | CC50 (Huh-7.5 cells): > 1000 nM; Anti-HAV activity relative to CC50 (in words) (18f-NLuc reporter virus [11]): only at concentrations close to their CC50; IC50 (18f-NLuc reporter virus [11]): 534 nM |
| Vitamin E | 97 | – | – | Normalized HAV production (18f-NLuc reporter virus [8]): 1.19 |
